Assay results as given in ChEMBL document CHEMBL3745640, “Challenges in the Discovery of Indoleamine 2,3-Dioxygenase 1 (IDO1) Inhibitors” (J Med Chem, 2015).
Values belong to the compound of their own block, whether it stands above or below them.

Tests used:
[1] = molecular target: T1, Indoleamine 2,3-dioxygenase 1 (Homo sapiens, UniProt P14902); assay: Inhibition of human recombinant IDO1 using L-tryptophan as substrate after 15 mins by Dixon plot analysis
[2] = molecular target: T1, Indoleamine 2,3-dioxygenase 1; assay: Inhibition of 6His-tagged human recombinant IDO1 expressed in Escherichia coli EC 539 using L-tryptophan as substrate after 1 hr by plate reader analysis
[3] = Competitive inhibition of rabbit small intestine IDO1 by double reciprocal plot analysis in presence of L-tryptophan; set-up: species or system Oryctolagus cuniculus
[4] = molecular target: T1, Indoleamine 2,3-dioxygenase 1; assay: Inhibition of N-terminal His-tagged human recombinant IDO1 expressed in Escherichia coli using L-tryptophan as substrate by methylene blue/ascorbate assay
[5] = molecular target: T1, Indoleamine 2,3-dioxygenase 1; assay: Inhibition of IDO (unknown origin)
[6] = molecular target: T1, Indoleamine 2,3-dioxygenase 1; assay: Inhibition of N-terminal His-tagged human recombinant IDO1 expressed in Escherichia coli using tryptophan as substrate by UV-visible absorption spectroscopy
[7] = molecular target: T1, Indoleamine 2,3-dioxygenase 1; assay: Inhibition of IFN-gamma-stimulated IDO1 activity in human HeLa cells using L-tryptophan as substrate after 48 hrs by spectrophotometric analysis; format: cell-based
[8] = molecular target: T1, Indoleamine 2,3-dioxygenase 1; assay: Inhibition of N-terminal His-tagged human recombinant IDO1 expressed in Escherichia coli using L-tryptophan as substrate preincubated for 10 mins followed by substrate addition measured after 30 mins by plate reader analysis
[9] = molecular target: T1, Indoleamine 2,3-dioxygenase 1; assay: Inhibition of human IDO1 in HEK293 cells after 20 hrs by plate reader assay; format: cell-based
[10] = molecular target: T1, Indoleamine 2,3-dioxygenase 1; assay: Inhibition of C-terminal 6His-tagged human IDO using L-tryptophan as substrate preincubated for 5 mins followed by substrate addition measured after 15 mins by spectrophotometric analysis
[11] = molecular target: T1, Indoleamine 2,3-dioxygenase 1; assay: Inhibition of N-terminal hexa-Histidine tagged human IDO1 expressed in Escherichia coli using L-tryptophan as substrate after 30 mins by HPLC analysis
[12] = molecular target: T1, Indoleamine 2,3-dioxygenase 1; assay: Inhibition of human recombinant IDO1 expressed in yeast IS20-2B using tryptophan as substrate by methylene blue/ascorbate assay
[13] = molecular target: T1, Indoleamine 2,3-dioxygenase 1; assay: Inhibition of human IDO using L-tryptophan as substrate preincubated for 5 mins followed by substrate addition measured after 15 mins by spectrophotometric analysis
[14] = molecular target: T1, Indoleamine 2,3-dioxygenase 1; assay: Noncompetitive inhibition of human recombinant IDO1 expressed in Escherichia coli by Michaelis-Menton nonlinear regression plot analysis in presence of L-tryptophan
[15] = molecular target: T1, Indoleamine 2,3-dioxygenase 1; assay: Competitive inhibition of 6His-tagged human recombinant IDO expressed in Escherichia coli BL21DE3pLys

T1 sequence (P14902 whole entry): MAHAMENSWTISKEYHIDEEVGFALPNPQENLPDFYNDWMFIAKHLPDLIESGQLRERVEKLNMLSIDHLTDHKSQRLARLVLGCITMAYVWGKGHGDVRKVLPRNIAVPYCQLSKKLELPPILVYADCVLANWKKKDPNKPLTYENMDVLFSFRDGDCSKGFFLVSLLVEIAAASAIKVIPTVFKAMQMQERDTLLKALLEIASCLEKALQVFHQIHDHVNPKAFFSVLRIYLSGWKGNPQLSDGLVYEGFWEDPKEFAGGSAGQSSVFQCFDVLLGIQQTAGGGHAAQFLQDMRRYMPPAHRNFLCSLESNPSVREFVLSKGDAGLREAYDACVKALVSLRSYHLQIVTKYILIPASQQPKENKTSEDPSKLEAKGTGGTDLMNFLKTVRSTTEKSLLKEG

SMILES: N=C1C=C(N)C(=O)c2[nH]c(=O)ccc21
Ki [1]: 4300 nM

SMILES: COc1cccc2c1C(=O)C1=C(C[C@H](Cn3cc(-c4ccccc4)nn3)O[C@@H]1C)C2=O
IC50 [2]: 6000 nM

SMILES: N[C@@H](CC1=CCC=CC1)C(=O)O
Ki [3]: 230000 nM

SMILES: CC1(C)CCC[C@]2(C)[C@H]3CC=C(C=O)CC(O)[C@]3(C=O)CC[C@@H]12 (stereo partly drawn)
IC50 [4]: 7700 nM

SMILES: COC1=CC(=O)c2oc(C)c(CO)c2C1=O
IC50 [8]: 240 nM

SMILES: CCCC(CCC)Oc1c(Br)cc(-c2ccccc2-c2nnn[nH]2)cc1NC(=O)Nc1ccccc1F
IC50 [9]: 3 nM

SMILES: CC(C)CN(CC(C)C)c1ccc(C(CC(=O)O)C(F)(F)F)cc1NC(=O)Nc1ccc(F)cc1F (stereo not drawn)
IC50 [9]: 3 nM

SMILES: NOCc1ccccc1
IC50 [13]: < 10000 nM

SMILES: CN1C(=O)C(Cc2c[nH]c3ccccc23)NC1=S (stereo not drawn) [NECROSTATIN]
Ki [15]: 12000 nM

Continued, values first:

IC50 [5]: 21000 nM
SMILES: CN1C(=O)c2ccccc2-n2c(nc3ccccc3c2=O)C1[C@H](O)c1ccccc1 (stereo partly drawn)

IC50 [6]: < 200 nM
SMILES: Nc1oc2c(-c3ccnc(N4CCOCC4)c3)nccc2c1Nc1ccc(F)c(Cl)c1

IC50 [7]: < 1000 nM
SMILES: CCc1ccccc1Nc1cnn[nH]1

IC50 [10]: < 1000 nM
SMILES: O=C(Cc1ccccc1)Nc1ccc(CCOc2ccccc2-c2cnc[nH]2)cc1

IC50 [5]: 15000 nM
SMILES: COc1cc(OC(=O)c2c(C)c(C)c(OC(=O)c3c(C)cc(O)c(C)c3O)c(C)c2OC)c(C)c(C)c1C(=O)O

IC50 [9]: 5 nM
SMILES: Cc1ccc(CC(=O)Nc2cc(-c3ccccc3-c3nnn[nH]3)ccc2N2CC3CC2CN3Cc2ccccc2)cc1 (stereo not drawn)

IC50 [11]: < 200 nM
SMILES: N#CC(Nc1ccc(F)c(Cl)c1)c1cc(Cl)ccc1O (stereo not drawn)

Ki [12]: 1500 nM
SMILES: C/N=C(N)/N=C(\N)Nc1cc2ccccc2c2ccccc12

Ki [14]: 100 nM
SMILES: CC1(C)CCC2=C(O1)c1ccccc1C(=O)C2=O [LAPACHONE]
